Structures can show the parent of a compound that is named as a salt.
Assays:
[1] = cited patent; cited from earlier work
[2] = literature pilot study; cited from earlier work

In the case of `CC1(C)O[C@@H]2[C@@H](CO[C@@]3(COS(N)(=O)=O)OC(C)(C)O[C@@H]23)O1` [topiramate], the “efficacy in an animal model of neuropathic pain” value [1] is given as “evidence of pharmacological activity”.
Molecule `Cn1cc(C(=O)c2ccc(Cl)cc2)cc1C(=O)CN1CCOCC1` (as salt: hydrochloride) [13-1, 1-[4-(4-Chlorobenzoyl)-1-methyl-1H-pyrrol-2-yl]-2-(1-morpholino)-ethanone hydrochloride] has a melting point of 264 to 267 °C.
In the case of `Cn1cc(C(=O)c2ccc(Cl)cc2)cc1C(=O)CN1CCCC1` (as salt: hydrochloride), the melting point is reported as 265 to 267 °C.
With `Cn1cc(C(=O)CN)cc1C(=O)c1ccc(Cl)cc1` (as salt: hydrochloride) the melting point was 290 °C (dec.).
Molecule `Cn1cc(C(=O)c2ccc(Cl)cc2)cc1C(=O)CN1CCCCC1` [Example 12, 1-[4-(4-Chlorobenzoyl)-1-methyl-1H-pyrrol-2-yl]-2-(1-piperidinyl)-ethanone] has a melting point of 129 to 130 °C.
In the case of `NCC1(CC(=O)O)CCCCC1` [Gabapentin], the “effect on brush-induced and cold allodynia” value [2] is listed as “significantly effective”, the “effect on detection and pain thresholds to static mechanical and hot stimuli” value [2] is listed as “no effect” and the reducing paroxysmal pain [2] is listed as “particularly effective”. For the same molecule, the “relief of ongoing spontaneous pain” value [2] was “moderate and statistically significant relief”.

— patent US6369228B2, “Aroyl aminoacyl pyrroles for use in the treatment of neuropathic pain” (Ortho-McNeil Pharmaceutical, Inc., priority 1999, dated 2002)
